The values that follow come from article PMC9487755 (Epigenetics, 2021).

Read-outs that look alike come from different tables or passages of the source. Where only a bound is given, the exact number is not on record here.

One series has as its target T1, C. difficile CamA (Clostridioides difficile, UniProt Q183J3).
T1 sequence (Q183J3 1-577): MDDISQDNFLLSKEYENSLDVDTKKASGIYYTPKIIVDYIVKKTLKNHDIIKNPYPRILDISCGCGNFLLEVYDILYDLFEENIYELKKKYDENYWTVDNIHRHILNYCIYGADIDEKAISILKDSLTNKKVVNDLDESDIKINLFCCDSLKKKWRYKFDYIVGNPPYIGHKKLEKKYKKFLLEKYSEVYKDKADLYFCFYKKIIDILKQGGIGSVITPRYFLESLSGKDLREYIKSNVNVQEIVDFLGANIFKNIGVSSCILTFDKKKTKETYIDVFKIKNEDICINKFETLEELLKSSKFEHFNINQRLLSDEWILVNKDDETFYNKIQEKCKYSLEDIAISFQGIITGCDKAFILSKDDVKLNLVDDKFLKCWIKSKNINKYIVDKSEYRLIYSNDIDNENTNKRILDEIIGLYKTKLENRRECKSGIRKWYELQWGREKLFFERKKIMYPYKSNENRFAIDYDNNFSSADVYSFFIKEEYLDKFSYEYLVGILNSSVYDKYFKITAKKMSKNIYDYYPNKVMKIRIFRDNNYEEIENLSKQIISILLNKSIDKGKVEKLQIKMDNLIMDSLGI
In words: CamA methylation inhibition assay. In kind it is biochemical. The note with it: for Relative inhibition of CamA activity at a single inhibitor concentration: 50 μM inhibitor.

Series [1] deals with T2, CamA (Clostridioides difficile, UniProt Q183J3).
T2 sequence (Q183J3 1-577): T1 sequence (Q183J3 1-577)
The series can be described thus: ITC binding of inhibitors to CamA.

For a further series, the system named is E. coli Dam. The note with it: read-out: Km of SAM for E. coli Dam; cited from earlier work.
The next series has as its target M.TaqI. The note with it: read-out: KD of SAM for M.TaqI; cited from earlier work.
The subject of another series is phage T4 Dam. The note with it: read-out: Km of SAM for phage T4 Dam; cited from earlier work.
In series [2] the target is T2, CamA. The note with it: cited from earlier work.
Another series relates to PRMT7. The note with it: read-out: IC50 PRMT7 activity; cited from earlier work.
Series [3] deals with four human RNA adenine MTases and two bacterial DNA adenine MTases. The series can be described thus: Selectivity: in vitro inhibition of other class I MTases. The format is biochemical. The note with it: four human RNA adenine MTases and two bacterial DNA adenine MTases (Figure 5).
Series [4] deals with T3, CamA (DNA adenine methyltransferase, plasmid pXC2184) (Clostridioides difficile, UniProt Q183J3 1-577).
T3 sequence: T1 sequence (Q183J3 1-577)
The series can be described thus: X-ray crystallography.

For the molecule `CC(C)N(CCCNC(=O)Nc1ccc(C(C)(C)C)cc1)C[C@H]1O[C@@H](n2ccc3c(N)ncnc32)[C@H](O)[C@@H]1O` [EPZ004777], at C. difficile CamA, the “Relative inhibition of CamA activity at a single inhibitor concentration” value (from here on “Relative inhibition of CamA activity”) is “notable inhibition”.

Consider `CC(C)N(C[C@H]1O[C@@H](n2cnc3c(N)ncnc32)[C@H](O)[C@@H]1O)[C@H]1C[C@@H](CCc2nc3cc(C(C)(C)C)ccc3[nH]2)C1` [EPZ5676, pinometostat], for which the Kd – broadly, the constant that tells how readily two partners part at equilibrium – at CamA [1] is > 50 µM. Also, on C. difficile CamA, the concentration for half-maximal inhibition (IC50) (as a rule, the concentration that inhibits the measured activity by half) was > 250 µM and the “Relative inhibition of CamA activity” value is recorded as “failed to inhibit CamA”.

On to `Nc1ncnc2c1ccn2[C@@H]1O[C@H]([C@H](O)c2ccccc2)[C@@H](O)[C@H]1O` [LLY-283], for which, at C. difficile CamA, the “Relative inhibition of CamA activity” value is “much weaker inhibition than sinefungin”.

Take `C[S+](CC[C@H](N)C(=O)[O-])C[C@H]1O[C@@H](n2cnc3c(N)ncnc32)[C@H](O)[C@@H]1O` (stereo partly drawn) [SAM, S-adenosyl-L-methionine]: the Km (as a rule, the concentration of substrate that gives half-maximal velocity) with E. coli Dam is 3 to 6 µM; in the series with phage T4 Dam, 0.5 µM; at CamA [2] (read-out: Km of SAM for CamA), > 17 µM. Moreover, the Kd on M.TaqI was 2 µM; at CamA [2] (read-out: KD of SAM binding by CamA), 35 µM.

Take `NCCCSC[C@H]1O[C@@H](n2cnc3c(N)ncnc32)[C@H](O)[C@@H]1O` [SGC0911]: the IC50 in the series with PRMT7 is 1 µM.

The molecule `CC(C)N(CCCNC(=O)Nc1ccc(C(C)(C)C)cc1)C[C@H]1O[C@@H](n2cc(Br)c3c(N)ncnc32)[C@H](O)[C@@H]1O` [SGC0946] had a Kd on CamA [1] of 6.3 µM. Besides, the “Fold stronger binding to CamA (KD) than EPZ004777” value at CamA [1] (SGC0946 vs. EPZ004777) was ~ 3 X. In addition, on C. difficile CamA, the midpoint of inhibition, the IC50, lay at 4.7 µM and the “Relative inhibition of CamA activity” value is on record as “notable inhibition”. Besides, on C. difficile CamA (SGC0946 vs. EPZ004777), the “Fold more potent inhibition of CamA (IC50) than EPZ004777” value is reported as ~ 9 X. In series [3], the “in vitro inhibition against six distinct MTase enzymes” value is ~ 50%.

Take `CC1=C(C)C(=O)C(C(C)(C)CC(=O)N(CCCCSC[C@H]2O[C@@H](n3cnc4c(N)ncnc43)[C@H](O)[C@@H]2O)Cc2cccc(-c3ccc(Cl)cc3)c2)=C(C)C1=O` [SGC3027]: the “Relative inhibition of CamA activity” value on C. difficile CamA was “does not possess in vitro inhibitory activity”.

B1: 14-bp CamA co-crystallization duplex (dsDNA)
DNA 1: TTCAAAAAGTCCCA
DNA 2: ATGGGACTTTTTGA
Turning to B1, the binding result in series [4] is recorded as “binds”.
